In US20260376293A1, “METHODS FOR STUDYING GPR158 PHARMACOLOGY AND IDENTIFICATION OF ITS LIGANDS” (UNIVERSITY OF FLORIDA RESEARCH FOUNDATION, INCORPORATED, priority 2022, published 2026):

Target: T1, GPR158 S266A mutant (Homo sapiens, UniProt Q5T848, S266A)
T1 construct: RGS7/Gβ5 co-expressed in the GAP BRET row only
T1 sequence (Q5T848 24-1215 S266A): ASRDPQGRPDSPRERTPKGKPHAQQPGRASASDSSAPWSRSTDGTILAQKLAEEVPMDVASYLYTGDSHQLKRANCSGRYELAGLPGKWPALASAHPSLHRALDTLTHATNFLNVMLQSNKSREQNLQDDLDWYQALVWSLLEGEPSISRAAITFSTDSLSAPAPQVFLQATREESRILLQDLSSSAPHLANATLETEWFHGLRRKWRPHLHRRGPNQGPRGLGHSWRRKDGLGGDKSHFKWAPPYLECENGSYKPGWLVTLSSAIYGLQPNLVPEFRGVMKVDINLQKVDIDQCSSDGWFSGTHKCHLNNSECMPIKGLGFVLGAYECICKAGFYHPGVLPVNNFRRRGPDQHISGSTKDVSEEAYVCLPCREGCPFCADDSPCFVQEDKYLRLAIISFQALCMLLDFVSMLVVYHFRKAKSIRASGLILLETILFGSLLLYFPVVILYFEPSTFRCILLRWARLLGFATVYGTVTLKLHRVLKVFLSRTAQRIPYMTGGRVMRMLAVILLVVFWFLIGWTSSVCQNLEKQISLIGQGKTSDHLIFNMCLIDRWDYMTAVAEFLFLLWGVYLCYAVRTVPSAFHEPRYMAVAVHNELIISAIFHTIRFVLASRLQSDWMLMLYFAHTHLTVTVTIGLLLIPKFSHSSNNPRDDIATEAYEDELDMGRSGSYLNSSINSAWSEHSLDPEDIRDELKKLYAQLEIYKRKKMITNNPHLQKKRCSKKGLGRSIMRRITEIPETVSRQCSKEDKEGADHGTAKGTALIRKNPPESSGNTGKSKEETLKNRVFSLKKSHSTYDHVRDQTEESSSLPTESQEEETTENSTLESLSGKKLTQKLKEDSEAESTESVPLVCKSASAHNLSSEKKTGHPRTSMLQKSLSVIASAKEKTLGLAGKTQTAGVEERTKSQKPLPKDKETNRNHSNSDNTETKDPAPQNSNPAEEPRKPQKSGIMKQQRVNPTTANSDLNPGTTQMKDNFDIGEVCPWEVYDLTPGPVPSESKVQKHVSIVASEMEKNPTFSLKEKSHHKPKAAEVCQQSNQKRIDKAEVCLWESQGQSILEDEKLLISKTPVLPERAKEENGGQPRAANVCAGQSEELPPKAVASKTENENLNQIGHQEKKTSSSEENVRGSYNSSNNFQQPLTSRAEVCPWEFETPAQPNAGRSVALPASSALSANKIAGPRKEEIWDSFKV
Test: GAP BRET assay on GPR158 mutant S266A
Format: cell-based
Text: FIGS. 11A-11G. Probing Cache domain of GPR158 as a ligand binding site A) Computational docking of glycine into putative ligand binding pocket on GPR158 Cache domain. Glycine and directly interacting residues are shown as sticks. Hydrogen bonds and van der Waals interactions are shown as dotted lines. B) Diagram showing interactions in the docked model of glycine against GPR158 Cache domain. Hydrogen bonds are shown as dashed lines, van der Waals interactions are shown as intersecting semicircles, and the secondary structural context of Ser266 and Tyr269 is shown as an arc. Dagger indicates a residue implicated in glycine binding in 11A. […] Error bars are mean±s.e.m. of 3 independent experiments in triplicate. *p<0.05, **p<0.01, ***p<0.001, ****p<0.0001, ns=p>0.05, two-way ANOVA Columns with no fill (Ctrl), columns with angled-line fill (Glycine) E) Quantification of glycine inhibitory effect on kGAP normalized to the effect seen with WT receptor. […]
Cellular measurements of BRET between Venus-Gβ1γ2 and masGRK3ct-Nluc were performed to examine GAP activity of RGS protein in living cells (described in detail in Masuho et al., 2015 (40)). […] The BRET signal was determined by calculating the ratio of the light emitted by the Venus-Gβ1γ2 (535 nm with a 30 nm band path width) over the light emitted by the masGRK3ct-Nluc (475 nm with a 30 nm band path width). […]

regulation of mutant activity by glycine: unable to be regulated
SMILES: NCC(=O)O [glycine]
